The record followed here is ChEMBL document CHEMBL1667830, “Non-oxime inhibitors of B-Raf(V600E) kinase” (Bioorg Med Chem Lett, 2011).

Each structure is given as a SMILES string.

The target of data set [1] is Serine/threonine-protein kinase B-raf (Homo sapiens, UniProt P15056, V600E). The experiment in a line: Inhibition of B-Raf V600E mutant.
A short description of data set [2]: Cmax in mouse at 25 mg/kg, po. The following applies: in vivo. The data set is classed as ADME, organism-based. More on the design: dose 25 mg/kg, route oral.
The nature of data set [3]: Permeability across human Caco2 cells. The data set is classed as ADME, cell-based. The note with it: Caco-2, read-out: permeability. Background: Caco-2 cells form a polarised layer with tight junctions and transporters.
The nature of data set [4]: AUC (0 to infinity) in mouse at 25 mg/kg, po. The format is ADME, organism-based. Further details: time infinity, dose 25 mg/kg, route oral. The note with it: plasma.

The term IC50 denotes the point on the concentration scale where inhibition reaches its midpoint. The low end stands for inhibition by little substance, the high end for a need for much substance. As usually defined, the Cmax is the maximum level reached in the sampled fluid or tissue. The AUC(0-inf) is the area under the concentration-time curve extrapolated to infinity. Low values mean less exposure, high ones more exposure.

Serine/threonine-protein kinase B-raf, sequence (P15056 2-766 V600E limits assumed): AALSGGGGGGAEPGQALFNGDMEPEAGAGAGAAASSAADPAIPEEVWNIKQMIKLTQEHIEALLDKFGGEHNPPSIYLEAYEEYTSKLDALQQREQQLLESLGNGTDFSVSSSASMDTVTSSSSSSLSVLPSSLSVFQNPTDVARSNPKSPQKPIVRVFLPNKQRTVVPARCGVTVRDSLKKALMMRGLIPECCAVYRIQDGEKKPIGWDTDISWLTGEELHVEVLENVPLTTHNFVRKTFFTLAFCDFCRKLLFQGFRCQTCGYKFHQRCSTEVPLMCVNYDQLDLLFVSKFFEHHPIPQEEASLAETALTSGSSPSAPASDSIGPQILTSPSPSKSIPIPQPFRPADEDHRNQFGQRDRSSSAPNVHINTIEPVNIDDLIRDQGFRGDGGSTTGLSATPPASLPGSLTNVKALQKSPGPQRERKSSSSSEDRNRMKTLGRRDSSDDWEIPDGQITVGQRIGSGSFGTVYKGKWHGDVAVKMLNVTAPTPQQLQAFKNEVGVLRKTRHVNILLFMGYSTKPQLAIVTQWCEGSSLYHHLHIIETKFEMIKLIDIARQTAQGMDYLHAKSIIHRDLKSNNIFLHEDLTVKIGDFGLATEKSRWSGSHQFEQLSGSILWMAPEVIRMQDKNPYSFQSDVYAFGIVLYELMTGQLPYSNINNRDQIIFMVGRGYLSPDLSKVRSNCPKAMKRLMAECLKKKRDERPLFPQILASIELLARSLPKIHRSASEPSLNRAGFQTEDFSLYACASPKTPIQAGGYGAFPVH

`CCOC(=O)c1oc2cnccc2c1Nc1cnc2ccccc2c1` showed an IC50 in data set [1] of 30 nM.
Still for that read-out and setting: the result for `Clc1cc(Nc2c(-c3ncccn3)oc3cnccc23)c2cn[nH]c2c1` reads 5.7 nM.
`Clc1ccc2[nH]ncc2c1Nc1c(-c2ncccn2)oc2cnccc12`: in data set [1], the IC50 was 240 nM. In data set [2], the concentration peaked (Cmax) at 3.73 µg/mL. Moreover, in data set [3], the Papp worked out at 20 nm/s. Besides, in data set [4], the AUC(0-inf) is 17 µg·h/mL.
Turning to `Clc1ccc(Nc2c(-c3ncccn3)oc3cnccc23)c2cn[nH]c12`, 4.2 nM corresponded to half-maximal inhibition in data set [1] (IC50). The Papp in data set [3] is less than 20 nm/s.
Consider `c1cnc(-c2oc3cnccc3c2Nc2cccc3[nH]ncc23)nc1`, for which the IC50 in data set [1] was determined as 14 nM.
Turning to `Fc1ccc(Nc2c(-c3ncccn3)oc3cnccc23)c2cn[nH]c12`, the IC50 in data set [1] turned out to be 2 nM.
Same read-out and setting: with `CN1CCN(Cc2cnc(-c3oc4cnccc4c3Nc3ccc4c(O)cccc4c3)nc2)CC1` the figure was 2 nM.
On the same count and under the same terms, with `CCOC(=O)c1oc2cnccc2c1Nc1ccc2c(c1)CCC2=O` the figure was 93 nM; with `OCCCc1n[nH]c2c(Cl)ccc(Nc3c(-c4ncccn4)oc4cnccc34)c12`, 0.8 nM; with `CCOC(=O)c1oc2cnccc2c1Nc1ccc2c(O)c(F)ccc2c1`, 3 nM.
The compound `Cc1ccc(Nc2c(-c3ncccn3)oc3cnccc23)c2cn[nH]c12` came in with an IC50 in data set [1] of 2.4 nM.
In data set [1], `c1cnc(-c2oc3cnccc3c2Nc2ccc3c(c2)Cc2c[nH]nc2-3)nc1` yielded an IC50 of 4 nM. The same compound yielded a Cmax in data set [2] of 2.22 µg/mL. Moreover, the Papp in data set [3] was greater than 80 nm/s. In data set [4], this compound had an AUC(0-inf) of 10.4 µg·h/mL.
In turn, `CC(C)NC(=O)c1oc2cnccc2c1Nc1ccc2c(c1)CN/C2=N\O` showed an IC50 in data set [1] of 5.2 nM.
With `CCOC(=O)c1oc2cnccc2c1Nc1ccc2c(O)cccc2c1`, the IC50 in data set [1] amounted to 1.1 nM.
The same measure, in the same setting: with `CC(C)NC(=O)c1oc2cnccc2c1Nc1ccc(Cl)c2[nH]ncc12` the figure was 2.7 nM; with `CCOC(=O)c1oc2cnccc2c1Nc1ccc2c(N)cccc2c1`, 52 nM.
The same measure, in the same setting: the result for `CC(C)NC(=O)c1oc2cnccc2c1Nc1ccc(Cl)c(O)c1` reads 4 nM; that for `NCCCc1n[nH]c2c(Cl)ccc(Nc3c(-c4ncccn4)oc4cnccc34)c12`, 4.3 nM; that for `CCOC(=O)c1oc2cnccc2c1Nc1ccc(Cl)c(O)c1`, 2.3 nM.
The same measure, in the same setting: with `Oc1cccc2cc(Nc3c(-c4ncccn4)oc4cnccc34)ccc12` the figure was 1 nM; with `O=C(Nc1ncccn1)c1oc2cnccc2c1Nc1ccc(Cl)c(O)c1`, 1.6 nM; with `CCc1n[nH]c2c(Cl)ccc(Nc3c(-c4ncccn4)oc4cnccc34)c12`, 0.8 nM.
As for `O=C1CCc2cc(Nc3c(-c4ncccn4)oc4cnccc34)ccc21`, the IC50 in data set [1] was found to be 16 nM.
As for `CC(C)NC(=O)c1oc2cnccc2c1Nc1ccc2c(c1)Cc1c[nH]nc1-2`, the IC50 in data set [1] was found to be 38 nM.
On the same count and under the same terms, the result for `Cc1cc(Nc2c(-c3ncccn3)oc3cnccc23)c2cn[nH]c2c1Cl` reads 0.3 nM.
Same read-out and setting: the result for `CN(C)/C=C/NC(=O)c1oc2cnccc2c1Nc1ccc2c(O)cccc2c1` reads 5 nM.
On the same count and under the same terms, the result for `O/N=C1\NCc2cc(Nc3c(-c4ncccn4)oc4cnccc34)ccc21` reads 0.5 nM; that for `CCOC(=O)c1oc2cnccc2c1Nc1ccc2ccccc2c1`, 179 nM; that for `CCOC(=O)c1oc2cnccc2c1Nc1ccc2c(c1)CC/C2=N/O`, less than 2 nM.
On to `CN/C=C/NC(=O)c1oc2cnccc2c1Nc1ccc2c(c1)Cc1c[nH]nc1-2`, for which, in data set [1], 42.9 nM corresponded to half-maximal inhibition (IC50).
Same read-out and setting: with `CC(C)NC(=O)c1oc2cnccc2c1Nc1ccc2c(O)cccc2c1` the figure was 1.4 nM.
